Structures can show the parent of a compound that is named as a salt.
Key:
[1] = Quantitative assessment of veldoreotide acetate solubility by HPLC; assay type: physicochemical; settings: read-out: Solubility (g/liter) - HPLC
Text: (§1) The solubility of veldoreotide acetate in aqueous media was screened by the following method. A fixed amount of 10 milligrams of the peptide was weighed and dissolved at ambient temperature by increased (incremental) volumes of the tested medium until a complete solubility was observed, i.e, clear/transparent solution and absence of any precipitates (the solubility endpoint values were defined according to USP guidance). Following the results of the screening studies, several media were selected for verification studies based on quantitative assessment of the peptide concentration by HPLC (maximal solubility). The results of the screening study are depicted in Table 1 while the results of the verification studies are included in Table 2.

[2] = Circulatory half-life after subcutaneous administration to rats; settings: rat, in vivo, sc
Text: The unique pharmacokinetic profile of veldoreotide acetate as evaluated in animals is consistent with its metabolic stability as evaluated in-vitro against various enzymes and tissue homogenates. […] This prolonged half-life is due to its unique “flip-flop” kinetics, a result of its slow release from the injection site.

[3] = Solubility screening of veldoreotide acetate (10 mg, incremental volumes of medium, USP definition); assay type: physicochemical
Text: as §1

Question: With `C[C@@H](O)[C@@H]1NC(=O)[C@H](CCCCN)NC(=O)[C@@H](Cc2c[nH]c3ccccc23)NC(=O)[C@H](Cc2c[nH]c3ccccc23)NC(=O)[C@H](Cc2ccccc2)NC(=O)CCCNC(=O)CCCN(CC(N)=O)C(=O)[C@H](Cc2ccccc2)NC1=O` [Veldoreotide Acetate, Cyclo(-γ-aminobutyryl-L-phenylalanyl-L-tryptophanyl-D-tryptophanyl-L-lysyl-L-threonyl-L-phenylalanyl-N-carbamoylmethyl-γ-aminobutyryl), acetate salt] as the compound, how does the solubility ([1]; 20 mM HEPES buffer, 20 mM HEPES, pH 7.2) read?
Answer: 212 g/L

Question: What about the solubility ([1]; 20 mM phosphate buffer, 20 mM Phosphate (10 mM Na2HPO4 + 10 mM NaH2PO4), pH 7.2) of the same compound?
Answer: 212 g/L

Question: And the solubility ([1]; 0.9% NaCl, pH 4.5)?
Answer: 2.31 g/L

Question: And the solubility ([1]; PBS, pH 7.4)?
Answer: 3.25 g/L

Question: What about the solubility ([1]; water) of the same compound?
Answer: 234 g/L

Question: And the half-life [2]?
Answer: ~3 h

Question: What about the “Results USP Definition” value ([3]; 10 mg in 0.1% TFA) of the same compound?
Answer: Freely soluble

Question: And the “Results USP Definition” value ([3]; 10 mg in 0.1N HCL, acetate salt)?
Answer: Soluble

Question: And the “Results USP Definition” value ([3]; 10 mg in 0.1N HCL, listed as veldoreotide acetate, acetate salt)?
Answer: soluble

Question: And the “Results USP Definition” value ([3]; 10 mg in 0.9N HCL, acetate salt)?
Answer: Insoluble

Question: What about the “Results USP Definition” value ([3]; 10 mg in 0.9N HCL, listed as veldoreotide acetate, acetate salt) of the same compound?
Answer: insoluble

Question: What about the “Results USP Definition” value ([3]; 10 mg in 2% Propylene glycol in olive oil (or cottonseed oil)) of the same compound?
Answer: Sparingly

Question: What about the “Results USP Definition” value ([3]; 10 mg in 10% EtOH (95%) in olive oil (or cottonseed oil)) of the same compound?
Answer: Sparingly

Question: What about the “Results USP Definition” value ([3]; 10 mg in Acetate saline 100 mM, Mannitol 250 mM (pH 4.3)) of the same compound?
Answer: Slightly soluble

Question: And the “Results USP Definition” value ([3]; 10 mg in Acetic acid 1% (glacial))?
Answer: Freely soluble

Question: What about the “Results USP Definition” value ([3]; 10 mg in Acetone (USP)) of the same compound?
Answer: Freely soluble

Question: And the “Results USP Definition” value ([3]; 10 mg in Caprylic acid)?
Answer: Soluble

Question: What about the “Results USP Definition” value ([3]; 10 mg in DDW (Double distilled water)) of the same compound?
Answer: Freely soluble

Question: And the “Results USP Definition” value ([3]; 10 mg in Dextrose 5% (USP))?
Answer: Freely soluble

Question: What about the “Results USP Definition” value ([3]; 10 mg in Ethanol (USP)) of the same compound?
Answer: Freely soluble

Question: And the “Results USP Definition” value ([3]; 10 mg in Glycerol)?
Answer: Soluble

Question: And the “Results USP Definition” value ([3]; 10 mg in Lactic acid 37 mM, Mannitol 250 mM (pH 4.3))?
Answer: Freely soluble

Question: And the “Results USP Definition” value ([3]; 10 mg in Oleic acid)?
Answer: Very slightly

Question: What about the “Results USP Definition” value ([3]; 10 mg in PBS pH 7.2) of the same compound?
Answer: Very slightly

Question: What about the “Results USP Definition” value ([3]; 10 mg in Propylene glycol) of the same compound?
Answer: Freely soluble

Question: And the “Results USP Definition” value ([3]; 10 mg in Refined vegetable oils, Olive, Cotton, Coconut, Canola)?
Answer: Insoluble

Question: What about the “Results USP Definition” value ([3]; 10 mg in Saline (USP) (0.9% NaCl) pH 4.5) of the same compound?
Answer: Very slightly

Question: What about the “Results USP Definition” value ([3]; 10 mg in WFI-USP (water for injection)) of the same compound?
Answer: Soluble

Question: And the solubility ([3]; 0.1% TFA, 10 mg in 0.1% TFA, read-out: 0.01 ml Very soluble (1 g/ml))?
Answer: < 1000 mg/mL

Question: And the solubility ([3]; 0.1% TFA, 10 mg in 0.1% TFA, read-out: 0.5 ml Soluble (0.02 g/ml; 20 mg/ml))?
Answer: > 20 mg/mL

Question: What about the solubility ([3]; 0.1% TFA, 10 mg in 0.1% TFA, read-out: 1 ml Sparingly soluble (0.01 g/ml; 10 mg/ml)) of the same compound?
Answer: > 10 mg/mL

Question: What about the solubility ([3]; 0.1% TFA, 0.1 ml Freely soluble (0.1 g/ml), 10 mg in 0.1% TFA) of the same compound?
Answer: > 100 mg/mL

Question: And the solubility ([3]; 0.1% TFA, 10 ml Slightly soluble (0.001 g/ml; 1 mg/ml), 10 mg in 0.1% TFA)?
Answer: > 1 mg/mL

Question: And the solubility ([3]; 0.1N HCl, 10 mg in 0.1N HCL, read-out: 0.01 ml Very soluble (1 g/ml))?
Answer: < 1000 mg/mL

Question: What about the solubility ([3]; 0.1N HCl, 10 mg in 0.1N HCL, read-out: 0.5 ml Soluble (0.02 g/ml; 20 mg/ml)) of the same compound?
Answer: > 20 mg/mL

Question: What about the solubility ([3]; 0.1N HCl, 10 mg in 0.1N HCL, read-out: 1 ml Sparingly soluble (0.01 g/ml; 10 mg/ml)) of the same compound?
Answer: > 10 mg/mL

Question: And the solubility ([3]; 0.1N HCl, 0.1 ml Freely soluble (0.1 g/ml), 10 mg in 0.1N HCL)?
Answer: > 100 mg/mL

Question: And the solubility ([3]; 0.1N HCl, 10 ml Slightly soluble (0.001 g/ml; 1 mg/ml), 10 mg in 0.1N HCL)?
Answer: > 1 mg/mL

Question: What about the solubility ([3]; 0.9N HCl, 10 mg in 0.9N HCL, read-out: 0.01 ml Very soluble (1 g/ml)) of the same compound?
Answer: < 1000 mg/mL

Question: And the solubility ([3]; 0.9N HCl, 10 mg in 0.9N HCL, read-out: 0.5 ml Soluble (0.02 g/ml; 20 mg/ml))?
Answer: < 20 mg/mL

Question: And the solubility ([3]; 0.9N HCl, 10 mg in 0.9N HCL, read-out: 1 ml Sparingly soluble (0.01 g/ml; 10 mg/ml))?
Answer: < 10 mg/mL

Question: And the solubility ([3]; 0.9N HCl, 0.1 ml Freely soluble (0.1 g/ml), 10 mg in 0.9N HCL)?
Answer: < 100 mg/mL

Question: What about the solubility ([3]; 0.9N HCl, 10 ml Slightly soluble (0.001 g/ml; 1 mg/ml), 10 mg in 0.9N HCL) of the same compound?
Answer: < 1 mg/mL

Question: And the solubility ([3]; 2% propylene glycol in olive oil (or cottonseed oil), 10 mg in 2% Propylene glycol in olive oil (or cottonseed oil), read-out: 0.01 ml Very soluble (1 g/ml))?
Answer: < 1000 mg/mL

Question: And the solubility ([3]; 2% propylene glycol in olive oil (or cottonseed oil), 10 mg in 2% Propylene glycol in olive oil (or cottonseed oil), read-out: 0.5 ml Soluble (0.02 g/ml; 20 mg/ml))?
Answer: < 20 mg/mL

Question: What about the solubility ([3]; 2% propylene glycol in olive oil (or cottonseed oil), 10 mg in 2% Propylene glycol in olive oil (or cottonseed oil), read-out: 1 ml Sparingly soluble (0.01 g/ml; 10 mg/ml)) of the same compound?
Answer: > 10 mg/mL

Question: What about the solubility ([3]; 2% propylene glycol in olive oil (or cottonseed oil), 0.1 ml Freely soluble (0.1 g/ml), 10 mg in 2% Propylene glycol in olive oil (or cottonseed oil)) of the same compound?
Answer: < 100 mg/mL

Question: What about the solubility ([3]; 2% propylene glycol in olive oil (or cottonseed oil), 10 ml Slightly soluble (0.001 g/ml; 1 mg/ml), 10 mg in 2% Propylene glycol in olive oil (or cottonseed oil)) of the same compound?
Answer: > 1 mg/mL

Question: And the solubility ([3]; 10% EtOH (95%) in olive oil (or cottonseed oil), 10 mg in 10% EtOH (95%) in olive oil (or cottonseed oil), read-out: 0.01 ml Very soluble (1 g/ml))?
Answer: < 1000 mg/mL

Question: What about the solubility ([3]; 10% EtOH (95%) in olive oil (or cottonseed oil), 10 mg in 10% EtOH (95%) in olive oil (or cottonseed oil), read-out: 0.5 ml Soluble (0.02 g/ml; 20 mg/ml)) of the same compound?
Answer: < 20 mg/mL

Question: And the solubility ([3]; 10% EtOH (95%) in olive oil (or cottonseed oil), 10 mg in 10% EtOH (95%) in olive oil (or cottonseed oil), read-out: 1 ml Sparingly soluble (0.01 g/ml; 10 mg/ml))?
Answer: > 10 mg/mL

Question: And the solubility ([3]; 10% EtOH (95%) in olive oil (or cottonseed oil), 0.1 ml Freely soluble (0.1 g/ml), 10 mg in 10% EtOH (95%) in olive oil (or cottonseed oil))?
Answer: < 100 mg/mL

Question: And the solubility ([3]; 10% EtOH (95%) in olive oil (or cottonseed oil), 10 ml Slightly soluble (0.001 g/ml; 1 mg/ml), 10 mg in 10% EtOH (95%) in olive oil (or cottonseed oil))?
Answer: > 1 mg/mL

Question: What about the solubility ([3]; Acetate saline 100 mM, Mannitol 250 mM, pH 4.3, 10 mg in Acetate saline 100 mM, Mannitol 250 mM (pH 4.3), read-out: 0.01 ml Very soluble (1 g/ml)) of the same compound?
Answer: < 1000 mg/mL

Question: What about the solubility ([3]; Acetate saline 100 mM, Mannitol 250 mM, pH 4.3, 10 mg in Acetate saline 100 mM, Mannitol 250 mM (pH 4.3), read-out: 0.5 ml Soluble (0.02 g/ml; 20 mg/ml)) of the same compound?
Answer: < 20 mg/mL

Question: And the solubility ([3]; Acetate saline 100 mM, Mannitol 250 mM, pH 4.3, 10 mg in Acetate saline 100 mM, Mannitol 250 mM (pH 4.3), read-out: 1 ml Sparingly soluble (0.01 g/ml; 10 mg/ml))?
Answer: < 10 mg/mL

Question: What about the solubility ([3]; Acetate saline 100 mM, Mannitol 250 mM, pH 4.3, 0.1 ml Freely soluble (0.1 g/ml), 10 mg in Acetate saline 100 mM, Mannitol 250 mM (pH 4.3)) of the same compound?
Answer: < 100 mg/mL

Question: And the solubility ([3]; Acetate saline 100 mM, Mannitol 250 mM, pH 4.3, 10 ml Slightly soluble (0.001 g/ml; 1 mg/ml), 10 mg in Acetate saline 100 mM, Mannitol 250 mM (pH 4.3))?
Answer: > 1 mg/mL

Question: And the solubility ([3]; Acetate saline 100 mM, Mannitol 250 mM, pH 4.3, Acetate saline 100 mM, Mannitol 250 mM (pH 4.3), read-out: Results USP Definition: solubility)?
Answer: 2 to 3 mg/mL

Question: And the solubility ([3]; Acetic acid 1% (glacial), 10 mg in Acetic acid 1% (glacial), read-out: 0.01 ml Very soluble (1 g/ml))?
Answer: < 1000 mg/mL

Question: And the solubility ([3]; Acetic acid 1% (glacial), 10 mg in Acetic acid 1% (glacial), read-out: 0.5 ml Soluble (0.02 g/ml; 20 mg/ml))?
Answer: > 20 mg/mL

Question: What about the solubility ([3]; Acetic acid 1% (glacial), 10 mg in Acetic acid 1% (glacial), read-out: 1 ml Sparingly soluble (0.01 g/ml; 10 mg/ml)) of the same compound?
Answer: > 10 mg/mL

Question: What about the solubility ([3]; Acetic acid 1% (glacial), 0.1 ml Freely soluble (0.1 g/ml), 10 mg in Acetic acid 1% (glacial)) of the same compound?
Answer: > 100 mg/mL

Question: And the solubility ([3]; Acetic acid 1% (glacial), 10 ml Slightly soluble (0.001 g/ml; 1 mg/ml), 10 mg in Acetic acid 1% (glacial))?
Answer: > 1 mg/mL

Question: And the solubility ([3]; Acetone (USP), 10 mg in Acetone (USP), read-out: 0.01 ml Very soluble (1 g/ml))?
Answer: < 1000 mg/mL

Question: And the solubility ([3]; Acetone (USP), 10 mg in Acetone (USP), read-out: 0.5 ml Soluble (0.02 g/ml; 20 mg/ml))?
Answer: > 20 mg/mL

Question: What about the solubility ([3]; Acetone (USP), 10 mg in Acetone (USP), read-out: 1 ml Sparingly soluble (0.01 g/ml; 10 mg/ml)) of the same compound?
Answer: > 10 mg/mL

From patent US10398751B2, “Pharmaceutical compositions of water soluble peptides with poor solubility in isotonic conditions and methods for their use” (STRONGBRIDGE IRELAND LIMITED, priority 2016, dated 2019)
